Each structure is given as a SMILES string.

The target in one test is T1, human S1P1 receptor (Homo sapiens, UniProt P21453).
T1 construct: expressed in transfected cells; membranes were used
T1 sequence (P21453 whole entry): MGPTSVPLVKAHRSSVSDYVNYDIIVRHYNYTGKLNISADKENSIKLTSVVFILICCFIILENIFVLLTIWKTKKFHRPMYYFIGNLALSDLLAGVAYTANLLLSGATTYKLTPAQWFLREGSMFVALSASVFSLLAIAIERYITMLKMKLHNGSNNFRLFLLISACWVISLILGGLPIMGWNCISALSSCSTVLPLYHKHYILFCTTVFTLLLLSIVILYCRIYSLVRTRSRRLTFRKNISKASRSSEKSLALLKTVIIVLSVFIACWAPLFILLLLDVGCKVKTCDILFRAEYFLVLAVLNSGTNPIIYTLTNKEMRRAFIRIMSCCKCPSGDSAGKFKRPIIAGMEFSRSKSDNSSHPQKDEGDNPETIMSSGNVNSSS
Nature of the test: GTP γ35S binding assay for S1P1 activity. The format is biochemical. Particulars: membranes of cells stably expressing the S1P1 receptor, read-out: Activity potency: S1P1 receptor from GTP γ35S, S1P1 EC50. Here is the method:
Compounds were tested for S1P1 activity using the GTP γ^35S binding assay. These compounds may be assessed for their ability to activate or block activation of the human S1P1 receptor in cells stably expressing the S1P1 receptor.
GTP γ^35S binding was measured in the medium containing (mM) HEPES 25, pH 7.4, MgCl2 10, NaCl 100, dithitothreitol 0.5, digitonin 0.003%, 0.2 nM GTP γ^355, and 5 μg membrane protein in a volume of 150 μl. Test compounds were included in the concentration range from 0.08 to 5,000 nM unless indicated otherwise. Membranes were incubated with 100 μM 5′-adenylylimmidodiphosphate for 30 min, and subsequently with 10 μM GDP for 10 min on ice. Drug solutions and membrane were mixed, and then reactions were initiated by adding GTP γ^355 and continued for 30 min at 25° C. Reaction mixtures were filtered over Whatman GF/B filters under vacuum, and washed three times with 3 mL of ice-cold buffer (HEPES 25, pH7.4, MgCl2 10 and NaCl 100). Filters were dried and mixed with scintillant, and counted for ^35S activity using a 8-counter. Agonist-induced GTP γ^355 binding was obtained by subtracting that in the absence of agonist. Binding data were analyzed using a non-linear regression method. In case of antagonist assay, the reaction mixture contained 10 nM S1P in the presence of test antagonist at concentrations ranging from 0.08 to 5000 nM.
(In general: GTPγS resists hydrolysis and so accumulates on activated G proteins.)
On to `O=P(O)(O)CCCNCc1ccc(SCCCCCc2ccccc2)cc1C(F)(F)F` [Compound 3, [3-({4-[(5-phenylpentyl)thio]-2-(trifluoromethyl)benzyl}amino)propyl]phosphonic acid], for which the EC50 (commonly the midpoint of the concentration-response curve) was determined as 13.6 nM.

As to `O=P(O)(O)CCCNCc1ccc(SCCCCCc2ccccc2)cc1Cl` [Compound 4, [3-({2-chloro-4-[(5-phenylpentyl)thio]benzyl}amino)propyl]phosphonic acid], the EC50 came out at 2.2 nM.

With `O=P(O)(O)CCCNCc1ccc(SCCCCCc2ccccc2)c(Cl)c1` [Compound 5, [3-({3-chloro-4-[(5-phenylpentyl)thio]benzyl}amino)propyl]phosphonic acid], the EC50 was 1.5 nM.

For `O=P(O)(O)CCCNCc1ccc(SCCCCCc2ccccc2)cc1` [Compound 6, [3-({4-[(5-phenylpentyl)thio]benzyl}amino)propyl]phosphonic acid], the EC50 was 3.3 nM.

With `O=P(O)(O)CCCNCc1ccc(SCCCCCc2ccccc2)c(OC(F)(F)F)c1` [Compound 7, [3-({4-[(5-phenylpentyl)thio]-3-(trifluoromethoxy)benzyl}amino)propyl]phosphonic acid], the EC50 amounted to 0.6 nM.

As to `N#Cc1cc(CNCCCP(=O)(O)O)ccc1SCCCCCc1ccccc1` [Compound 8, [3-({3-cyano-4-[(5-phenylpentyl)thio]benzyl}amino)propyl]phosphonic acid], the EC50 is 6.1 nM.

`Cc1cc(CNCCCP(=O)(O)O)ccc1SCCCCCc1ccc(F)cc1` [Compound 9, {3-[(4-{[5-(4-fluorophenyl)pentyl]thio}-3-methylbenzyl)amino]propyl}phosphonic acid]: the concentration giving a half-maximal response (EC50) worked out at 27.2 nM.

As to `O=P(O)(O)CCCNCc1ccc(SCCCCCc2ccc(F)cc2)c(C(F)(F)F)c1` [Compound 10, (3-{[4-{[5-(4-fluorophenyl)pentyl]thio}-3-(trifluoromethyl)benzyl]amino}propyl)phosphonic acid], the 50% effective concentration (EC50) turned out to be 5.4 nM.

Turning to `COc1ccc(CCCCCSc2ccc(CNCCCP(=O)(O)O)cc2C(F)(F)F)cc1` [Compound 11, (3-{[4-{[5-(4-methoxyphenyl)pentyl]thio}-3-(trifluoromethyl)benzyl]amino}propyl)phosphonic acid], the EC50 was found to be 60.6 nM.

In the case of `O=P(O)(O)CCCNCc1ccc(SCCCCCc2ccc(Cl)cc2)c(C(F)(F)F)c1` [Compound 13, (3-{[4-{[5-(4-chlorophenyl)pentyl]thio}-3-(trifluoromethyl)benzyl]amino}propyl)phosphonic acid], the EC50 amounted to 4.6 nM.

As for `O=P(O)(O)CCCNCc1ccc(SCCCCCc2ccc(Cl)cc2)c(OC(F)(F)F)c1` [Compound 14, (3-{[4-{[5-(4-chlorophenyl)pentyl]thio}-3-(trifluoromethoxy)benzyl]amino}propyl)phosphonic acid], the EC50 was determined as 7.9 nM.

Consider `O=P(O)(O)CCCNCc1ccc(SCCCCCc2ccc(F)cc2)c(OC(F)(F)F)c1` [Compound 15, (3-{[4-{[5-(4-fluorophenyl)pentyl]thio}-3-(trifluoromethoxy)benzyl]amino}propyl)phosphonic acid], for which the EC50 is 1.6 nM.

Consider `Cc1ccc(CCCCCSc2ccc(CNCCCP(=O)(O)O)cc2OC(F)(F)F)cc1` [Compound 16, (3-{[4-{[5-(4-methylphenyl)pentyl]thio}-3 (trifluoromethoxy)benzyl]amino}propyl)phosphonic acid], for which the EC50 was determined as 3.5 nM.

On to `O=P(O)(O)C(F)(F)CCNCc1ccc(SCCCCCc2ccccc2)c(Cl)c1` [Compound 17, [3-({3-chloro-4-[(5-phenylpentyl)thio]benzyl}amino)-1,1-difluoropropyl]phosphonic acid], for which the EC50 was 4.8 nM.

In the case of `O=P(O)(O)C(F)(F)CCNCc1ccc(SCCCCCc2ccccc2)c(OC(F)(F)F)c1` [Compound 18, [1,1-difluoro-3-({4-[(5-phenylpentyl)thio]-3-(trifluoromethoxy)benzyl}amino)propyl]phosphonic acid], the EC50 was found to be 13.6 nM.

For `CC(CCNCc1ccc(SCCCCCc2ccccc2)c(Cl)c1)P(=O)(O)O` (stereo not drawn) [Compound 19, [3-({3-chloro-4-[(5-phenylpentyl)thio]benzyl}amino)-1-methylpropyl]phosphonic acid], the EC50 is 8.8 nM.

For the molecule `Cc1cc(CNCCCP(=O)(O)O)ccc1SCCCCCc1ccccc1` [Compound 20, [3-({3-methyl-4-[(5-phenylpentyl)thio]benzyl}amino)propyl]phosphonic acid], the EC50 was determined as 3.2 nM.

Regarding `O=P(O)(O)CCCNCc1ccc(SCCCCCc2ccccc2)c(F)c1` [Compound 21, [3-({3-fluoro-4-[(5-phenylpentyl)thio]benzyl}amino)propyl]phosphonic acid], the half-maximal effective concentration (EC50) came out at 0.3 nM.

Regarding `N#Cc1cc(CNCCCP(=O)(O)O)ccc1SCCCCCc1ccc(F)cc1` [Compound 22, {3-[(3-cyano-4-{[5-(4-fluorophenyl)pentyl]thio}benzyl)amino]propyl}phosphonic acid], the EC50 amounted to 2.4 nM.

For the molecule `Cc1ccc(CCCCCSc2ccc(CNCCCP(=O)(O)O)cc2C)cc1` [Compound 23, {3-[(3-methyl-4-{[5-(4-methylphenyl)pentyl]thio}benzyl)amino]propyl}phosphonic acid], the EC50 stood at 41.4 nM.

In the case of `O=P(O)(O)CCCNCc1ccc(SCCCCCc2ccc(F)cc2)cc1C(F)(F)F` [Compound 24, (3-{[4-{[5-(4-fluorophenyl)pentyl]thio}-2-(trifluoromethyl)benzyl]amino}propyl)phosphonic acid], the EC50 amounted to 8.7 nM.

As to `O=P(O)(O)CCCNCc1cc(F)c(SCCCCC2(c3ccccc3)CCCCC2)cc1F` [Compound 50, {3-[(2,5-difluoro-4-{[4-(1-phenylcyclohexyl)butyl]thio}benzyl)amino]propyl}phosphonic acid], the EC50 is 0.9 nM.

For `COc1ccc(CCCCCSc2ccc(CNCCCP(=O)(O)O)cc2OC(F)(F)F)cc1` [Compound 163, (3-{[4-{[5-(4-methoxyphenyl)pentyl]thio}-3-(trifluoromethoxy)benzyl]amino}propyl)phosphonic acid], the EC50 was 67.9 nM.

Consider `O=P(O)(O)CCCNCc1ccc(SCCCCC2(c3ccccc3)CCCCC2)c(Cl)c1` [Compound 164, {3-[(3-chloro-4-{[4-(1-phenylcyclohexyl)butyl]thio}benzyl)amino]propyl}phosphonic acid], for which the EC50 stood at 2 nM.

In the case of `CC(C)(CCCCSc1ccc(CNCCCP(=O)(O)O)cc1Br)c1ccccc1` [Compound 165, [3-({3-bromo-4-[(5-methyl-5-phenylhexyl)thio]benzyl}amino)propyl]phosphonic acid], the EC50 was 13.1 nM.

For the molecule `O=P(O)(O)CCCNCc1ccc(SCCCCCc2ccccc2)c(Br)c1` [Compound-1, [3-({3-bromo-4-[(5-phenylpentyl)thio]benzyl}amino)propyl]phosphonic acid], the EC50 came out at 1.8 nM.

The next test relates to blood lymphocytes. Kind of test: Lymphopenia assay in mice. The format is in vivo. The note with it: 10 mg/Kg subcutaneously, female C57BL6 mice, after 5 hours, FIG. 1. Here is the method: Test drugs are prepared in a solution containing 3% (w/v) 2-hydroxy propyl β-cyclodextrin (HPBCD) and 1% DMSO to a final concentration of 1 mg/ml, and subcutaneously injected to female C57BL6 mice (CHARLES RIVERS) weighing 20-25 g at the dose of 0.5 to 10 mg/Kg. Blood samples are obtained by puncturing the submandibular skin with a Goldenrod animal lancet at 5, 24, 48, 72, and 96 hrs post drug application. Blood is collected into microvettes (SARSTEDT) containing EDTA tripotassium salt. Lymphocytes in blood samples are counted using a HEMAVET Multispecies Hematology System, HEMAVET HV950FS (Drew Scientific Inc.).
A lymphopenia assay in mice; as previously described, was employed to measure the in vivo blood lymphocyte depletion after dosing with the test compound: [3-({3-bromo-4-[(5-phenylpentyl)thio]benzyl}amino)propyl]phosphonic acid Compound-1. This S1P1 modulator, [3-({3-bromo-4-[(5-phenylpentyl)thio]benzyl}amino)propyl]phosphonic acid Compound-1 is useful for S1P-related diseases and exemplified by the lymphopenia in vivo response. […] Lymphocytes in blood samples were counted using a HEMAVET Multispecies Hematology System, HEMAVET HV950FS (Drew Scientific Inc.). […]
With `O=P(O)(O)CCCNCc1ccc(SCCCCCc2ccccc2)c(Br)c1` [Compound-1, [3-({3-bromo-4-[(5-phenylpentyl)thio]benzyl}amino)propyl]phosphonic acid], the “lymphocyte count (number of lymphocytes in blood)” value was < 1 10^3/μL blood.

(Values after patent US20140171393A1, “NOVEL AROMATIC THIO COMPOUNDS AS RECEPTOR MODULATORS” (Allergan, Inc., priority 2012, published 2014).)
